From patent publication US6214801A, “Imidazo[1,2-a]pyridine C-nucleosides as antiviral agents” (The Regents of the University of Michigan, priority 1999, dated 2001)
Where two headings read alike, the source gives them in different places.

Key:
HIV-1 = HIV-1 replication, reverse transcriptase (RT) assay in CEM cells; type: cell-based, HIV-1 strain IIIB; conditions: Table 6
Protocol: (§1) CEM cells and strain IIIB of HIV-1 were obtained through courtesy of Dr. Louis S. Kurcera, Boman Gray School of Medicine, Wake Forest University. CEM cells were grown in suspension culture and passaged through conventional procedures.
The activity of compounds against HIV-1 replication was determine by using reverse transcriptase (RT) as a marker for HIV-1. Strain IIIB of HIV-1 was grown in CEM cells maintained in suspension culture as detailed previously (see Kucera et al. AIDS Res. Human Retroviruses, 1993, Vol. 9, pp. 307-314). The assay measured the presence of HIV in supernatants of infected CEM cells by determining the amount of RT activity. Cells were grown, infected with HIV-1, and incubated in the presence of seven concentrations (one-half log10 dilutions) of the test compounds beginning at 1 or 100 μM concentration, depending on the compound to be assayed. Procedures and the RT assay were performed as detailed previously (see White et al., Antiviral Res. 1991, Vol. 16, pp. 257-266).

in vitro = type: cell-based, human; conditions: human, hff cells
Protocol: (§2) KB cells (available from the American Type Culture Collection (ATCC) 12301 Parklawn Drive, […], Md. 20852 (ATCC CCL 17)), an established human cell line derived from an epidermal oral carcinoma, were grown in minimal essential medium (MEM) (Sigma) with Hanks salts (MEM(H)) supplemented with 5% fetal calf serum. Human foreskin fibroblasts (HFF cells) (provided by the University of Michigan Hospital) and African green monkey kidney cells (BSC-1) (ATTC CCL 26) cells were grown in MEM with Earl salts (MEM(E)) supplemented with 10% fetal bovine serum. Cells were passaged according to conventional procedures and as described in Shipman, C., Jr. et al. (1976) Antimicrob. Agents Chemother. Vol. 9:120 and incorporated herein by reference. Briefly, cells were passaged at 1:2 to 1:10 dilutions according to conventional procedures by using 0.05% trypsin plus 0.02% EDTA in a HEPES buffered salt solution. HFF cells were passaged onlv at 1:2 dilutions.
(§3) Two different methods were used to evaluate cytotoxicity of the compounds. First, cytotoxicity produced in stationary HFF cells was determined by microscopical examination of cells not affected by the virus used in the plaque assay. Second the effect of compounds on KB cells during two population doubling times was determined by crystal violet staining and spectrophotometric quantitation of dye eluted from stained cells. This method has been utilized for the analysis of ganciclovir and zidovudine (See Prichard, M. N. et al. Antiviral Res. (1991) Vol. 35:1060-1065).

HCMV [1] = assay: HCMV plaque (focus) reduction assay in HFF cells; type: cell-based; conditions: for IC50: Human betaherpesvirus 5, HFF cells, 7 to 10 days, read-out: 50% Inhibitory Concentration IC50, Antiviral Activity, HCMV (plaque assay in HFF cells); for antiviral activity (in words): Table 5
Protocol: as §2
(§4) A plaque purified isolate, Po, of the Towne strain of HCMV was used in all experiments and was a gift of Dr. Mark Stinski, University of Iowa. The KOS strain of HSV-1 was used and was provided by Dr. Sandra K. Weller, University of Connecticut. Stock preparations of HCMV and HSV-1 were prepared and titered as known to those of skill and the art and described in Turk, S. R. et al. (1987) Antimicrob. Agents Chemother. Vol. 31:544-550 and Shipman, C., Jr., et al. (1990) J. Virol. Methods Vol. 28:101-106, each incorporated herein by reference.
Stock HCMV was prepared by infecting HFF cells at a multiplicity of infection (m.o.i.) of less that 0.01 plaque-forming units (p.f.u.) per cell. Cell growth medium was changed every four days until cytopathology was evident in all cells (approximately 21 days). Supernatant fluids were retained as the virus stock. Four days later, the remaining cells were disrupted by three cycles of freeze-thawing and the cell plus medium held as an additional source of virus. Storage was in liquid nitrogen.
HCMV was titered in 24-well cluster dishes which were plated to contain 5×10^4 HFF cells/well, grown as described above. When the cells were 70 to 80% confluent, 0.2 ml of the virus suspension was added per well and adsorbed as described above. At least three ten-fold dilutions of each preparation were used. Following virus adsorption, the cell sheets were overlayed with 0.5% methocel (4000 CPS) in maintenance medium [MEM(E) with 1.1 g/liter NaHCO3, 100 units/ml penicillin G, 100 μg/ml streptomycin, and 5% fetal bovine serum]. The cultures were incubated in a humidified atmosphere of 4% CO2 -96% air. Viral plaques were visible 5 to 7 days after infection using at least 10-fold magnification. Cells were fixed and stained by a 10-minute exposure to a 0.1% solution of crystal violet in 20% methanol 7 to 12 days after infection. Microscopic foci were enumerated at 20-fold magnification using a Nikon Profile Projector.
(§5) HCMV plaque reduction experiments were performed with monolayer cultures of HFF cells by a procedure similar to that referenced above for titration of the viruses and described in Devivar, R. V. et al. (1994) J. Med. Chem. Vol. 37:2942-2949. Activity of compounds against HSV-1 was evaluated using an ELISA assay.
The effect of compounds of the replication of HCMV was measured using a plaque (focus) reduction assay. For the former, HFF cells in 24-well culture dishes were infected with approximately 50 p.f.u. of HCMV per well using the procedures detailed above. Compounds dissolved in growth medium were added in four to six selected concentrations to duplicate wells following virus adsorption. Following incubation at 37 °C for 7 to 10 days, cell sheets were fixed, stained and microscopic plaques were enumerated as described above. Drug effects were calculated as a percentage of reduction in number of plaques in the presence of each drug concentration compared to the number observed in the absence of drug. […]

HSV-1 = HSV-1 ELISA assay; type: cell-based, herpes simplex virus type 1, KOS strain
Protocol: as §2, §4
Briefly, high titer HSV-1 stocks were prepared as follows. Nearly confluent monolayer cultures of KB cells were grown in 32 oz. glass bottles containing MEM(E) buffered with 25 mM HEPES and supplemented with 5% fetal bovine serum and 0.127 giliter L-arginine (VGM, virus growth medium). The cultures were infected at a low input multiplicity to reduce the formation of defective virus. After cell cytopathology reached "three to four plus", the cells were harvested by vigorous shaking, and concentrated by centrifugation (800×g for 5 min.). The resulting virus pools were stored at -760C until retrieved for use in experiments.
HSV-1 was titered using monolayer cultures of BSC-1 cells. Cells were planted at 3×10^5 cells/well using 6-well cluster dishes. MEM(E) supplemented with 10% fetal bovine serum was employed as medium. After 22-24 h, cells were 90% confluent and were inoculated in triplicate using at least three ten-fold dilutions with 0.2 ml of the virus suspension to be assayed and incubated in a humidified 4% CO2 -[…] atmosphere for one hour to permit viral adsorption. Following virus adsorption, the cell sheet was overlayed with 5 ml of MEM(E) with 5% serum plus 0.5% methocel (4000 CPS) and incubated an additional two to three days. Cells were fixed and stained with 0.1% crystal violet in 20% methanol and macroscopic plaques enumerated.
as §5
ELISA techniques according to standard procedures were also used to determine activity against HSV-1. Drug effects were calculated as a percentage of the reduction in virus titers in the presence of each drug concentration compared to the titer obtained in the absence of drug. Ganciclovir was used as a positive control in all experiments.

[2] = Growth cytotoxicity in CEM cells; type: cell-based; conditions: human, read-out: 50% Inhibitory Concentration IC50, Cytotoxicity, Growth (CEM cells)
Protocol: as §1

[3] = Growth cytotoxicity in KB cells (crystal violet staining); type: cell-based; conditions: human, two population doubling times, read-out: 50% Inhibitory Concentration IC50, Cytotoxicity, Growth (KB cells)
Protocol: as §2, §3

HCMV [4] = conditions: background; cited from earlier work
HFF cells = assay: in vitro; type: cell-based, human
Protocol: as §2, §3

[5] = Human alphaherpesvirus 1; read-out: 50% Inhibitory Concentration IC50, Antiviral Activity, HSV-1 (ELISA assay)

Compound	HIV-1 antiviral activity (in words) (HIV-1)	CC50 (in vitro)	IC50 (HCMV [1])	IC50 (HSV-1; [5])	CC50 [2]	CC50 [3]	antiviral activity of known compounds (in words) (HCMV [4])	cytotoxicity (in words) (HFF cells)	antiviral activity (in words) (HCMV [1])	IC50 (HSV-1; Human alphaherpesvirus 1, read-out: 50% Inhibitory Concentration IC50, Antiviral Activity, HSV-1 (ELISA assay))
5-(5'-O-[(tert-Butyl)dimethylsilyl]-2',3'-O-isopropylidene-β-D-ribofuranosyl)-imidazo[1,2-a]pyridine [Compound 44]	HIV-1 antiviral activity at non-cytotoxic concentrations									
Clc1cc2nc(Cl)c(C3C=CCO3)n2cc1Cl (racemic) [Compound 26, 2,6,7-Trichloro-3-(2',3'-dideoxy-2',3'-didehydro-β-D/ L-erythro-furanosyl)-imidazo[1,2-a]pyridine]		222 µM	32 µM	> 100 µM	> 100 µM	> 100 µM				
OC[C@H]1O[C@@H](n2c(Br)nc3cc(Cl)c(Cl)cc32)[C@H](O)[C@@H]1O [BDCRB, 2-bromo-5,6-dichloro-1-(2'-β-D-ribofuranosyl)-benzimidazole]							useful against HCMV infections			
Clc1ccc2nc(Cl)cn2c1 [Compound 12, 2,6-Dichloro-imidazo[1,2-a]pyridine]		> 100 µM	> 100 µM	> 100 µM		> 100 µM				
Clc1ccn2cc(Cl)nc2c1 [Compound 15, 2,7-Dichloro-imidazo[1,2-a] pyridine]		> 100 µM	> 100 µM	> 100 µM		> 100 µM				
Clc1cn2cc(Cl)c(Cl)cc2n1 [Compound 16, 2,6,7-Trichloro-imidazo[1,2-a]pyridine]		> 100 µM	> 100 µM	> 100 µM		> 100 µM				
Clc1cn2cc(Cl)c(Cl)c(Cl)c2n1 [Compound 18, 2,6,7,8-Tetrachloro-imidazo[1,2-a]pyridine]		> 100 µM	> 100 µM	> 100 µM		> 100 µM				
OC[C@H]1O[C@@H](c2c(Cl)ccc3nc(Cl)cn23)[C@H](O)[C@@H]1O [Compound 36, 2,6-Dichloro-5-(β-D-ribofuranosyl)imidazo[1,2-a]pyridine]		> 100 µM	> 100 µM	> 100 µM		> 100 µM				
OC[C@H]1O[C@H](c2c(Cl)ccc3nc(Cl)cn23)[C@H](O)[C@@H]1O [Compound 38, 2,6-Dichloro-5-(α-D-ribofuranosyl)imidazo[1,2-a]pyridine]		> 100 µM	> 100 µM	> 100 µM		> 100 µM				
OC[C@H]1O[C@@H](c2c(Cl)c(Cl)cc3nc(Cl)cn23)[C@H](O)[C@@H]1O [Compound 42, 2,6,7-Trichloro-5-(β-D-ribofuranosyl)imidazo[1,2-a]pyridine]		> 100 µM	> 100 µM	> 100 µM		> 100 µM				
OC[C@H]1O[C@H](c2c(Cl)c(Cl)cc3nc(Cl)cn23)[C@H](O)[C@@H]1O [Compound 43, 2,6,7-Trichloro-5-(α-D-ribofuranosyl)imidazo[1,2-a]pyridine]		> 100 µM	> 100 µM	> 100 µM		> 100 µM				
OC[C@H]1O[C@@H](c2cccc3nccn23)[C@H](O)[C@@H]1O [Compound 45, 5-(β-D-Ribofuranosyl)imidazo[1,2-a]pyridine]		> 100 µM	> 100 µM	> 100 µM		> 100 µM				
O[C@@H]1[C@@H](c2c(Cl)nc3cc(Cl)c(Cl)cn23)OC[C@@H]1O [Compound +28, 2,6,7-Trichloro-3-(β-L-erythrofuranosyl)imidazo[1,2-a]pyridine]		> 100 µM	> 100 µM	> 100 µM		> 100 µM				
O[C@@H]1[C@H](O)CO[C@@H]1c1c(Cl)nc2cc(Cl)c(Cl)cn12 [Compound +29, 2,6,7-trichloro-3-(α-D-erythrofuranosyl)imidazo[1,2-α]pyridine]		> 100 µM	4.9 µM			> 100 µM		very low cytotoxicity	excellent antiviral activity	80 µM
O[C@@H]1[C@H](O)CO[C@H]1c1c(Cl)nc2cc(Cl)c(Cl)cn12 [Compound -28, 2,6,7-Trichloro-3-(β-D-erythrofuranosyl)imidazo[1,2-a]pyridine]		> 100 µM	> 100 µM	> 100 µM		> 100 µM				
O[C@H]1[C@@H](O)CO[C@H]1c1c(Cl)nc2cc(Cl)c(Cl)cn12 [Compound -29, 2,6,7-dichloro-3-(α-L-erythrofuranosyl)imidazo[1,2-α]pyridine]		> 100 µM	17 µM	> 100 µM		> 100 µM				
O[C@H]1[C@@H](O)CO[C@H]1c1c(Cl)nc2cc(Cl)c(Cl)cn12 [Compound -29]								very low cytotoxicity	excellent antiviral activity	
Nc1nc(O)c2ncn(COC(CO)CO)c2n1 [DHPG, ganciclovir, reference compound]		> 100 µM	7.4 µM							
